Legend:
[1] = diprotic, cited from earlier work
[2] = test system: Bacillus amyloliquefaciens spores; type: cell-based
[3] = test system: Bacillus anthracis Sterne spores; type: cell-based; details: cotton/nylon fabric, 200, 80, or 40 ppm chlorine dioxide, 10 minutes

Row | SMILES | pKa1 ([1]; first dissociation) | pKa2 ([1]; second dissociation) | presence of B. amyloliquefaciens spores after treatment [2] | log reduction of B. anthracis Sterne spores [3] [log reduction]
1 | N=C(N)S(=O)O [FSA, Formamidinesulfinic acid] | ≤ 2 | ~9 |  | 
2 | [O][Cl+][O-] [chlorine dioxide] |  |  | significantly reduced but did not completely eliminate | 7.50

Reference: patent publication US9517934B2, “Process for the generation of chlorine dioxide” (The United States of America as Represented by the …, priority 2013, dated 2016)
